{"source": "PubChem BioAssay (NCI)", "assay_in_all_cases": "NCI-60 cell line screen, 48 h", "key": {"SK-MEL-5 melanoma": {"test_system": "SK-MEL-5 melanoma"}, "SK-MEL-2 melanoma": {"test_system": "SK-MEL-2 melanoma"}, "UACC-257 melanoma": {"test_system": "UACC-257 melanoma"}, "TK-10 renal": {"test_system": "TK-10 renal"}, "U251 CNS": {"test_system": "U251 CNS"}, "NCI-H23 lung": {"test_system": "NCI-H23 lung"}, "786-0 renal": {"test_system": "786-0 renal"}, "MOLT-4 leukemia": {"test_system": "MOLT-4 leukemia"}, "ACHN renal": {"test_system": "ACHN renal"}, "DLD-1 colon": {"test_system": "DLD-1 colon"}, "M19-MEL melanoma": {"test_system": "M19-MEL melanoma"}, "SNB-19 CNS": {"test_system": "SNB-19 CNS"}, "NCI-H522 lung": {"test_system": "NCI-H522 lung"}, "OVCAR-8 ovarian": {"test_system": "OVCAR-8 ovarian"}, "SK-OV-3 ovarian": {"test_system": "SK-OV-3 ovarian"}, "A549 NSCLC": {"test_system": "A549 NSCLC"}, "MALME-3M melanoma": {"test_system": "MALME-3M melanoma"}, "SW-620 colon": {"test_system": "SW-620 colon"}, "OVCAR-5 ovarian": {"test_system": "OVCAR-5 ovarian"}, "RXF-631 renal": {"test_system": "RXF-631 renal"}, "CAKI-1 renal": {"test_system": "CAKI-1 renal"}, "UACC-62 melanoma": {"test_system": "UACC-62 melanoma"}, "IGROV1 ovarian": {"test_system": "IGROV1 ovarian"}, "SN12C renal": {"test_system": "SN12C renal"}, "COLO 205 colon": {"test_system": "COLO 205 colon"}, "OVCAR-4 ovarian": {"test_system": "OVCAR-4 ovarian"}, "SF-268 CNS": {"test_system": "SF-268 CNS"}, "SR leukemia": {"test_system": "SR leukemia"}, "HOP-18 NSCLC": {"test_system": "HOP-18 NSCLC"}, "OVCAR-3 ovarian": {"test_system": "OVCAR-3 ovarian"}, "SNB-78 CNS": {"test_system": "SNB-78 CNS"}, "SF-295 CNS": {"test_system": "SF-295 CNS"}, "DMS 114 small cell lung": {"test_system": "DMS 114 small cell lung"}, "SNB-75 CNS": {"test_system": "SNB-75 CNS"}, "RPMI-8226 leukemia": {"test_system": "RPMI-8226 leukemia"}, "LOX IMVI melanoma": {"test_system": "LOX IMVI melanoma"}, "HT29 colon": {"test_system": "HT29 colon"}, "KM20L2 colon": {"test_system": "KM20L2 colon"}, "DMS 273 small cell lung": {"test_system": "DMS 273 small cell lung"}, "LXFL 529 NSCLC": {"test_system": "LXFL 529 NSCLC"}, "A498 renal": {"test_system": "A498 renal"}, "SK-MEL-28 melanoma": {"test_system": "SK-MEL-28 melanoma"}, "CCRF-CEM leukemia": {"test_system": "CCRF-CEM leukemia"}, "K-562 leukemia": {"test_system": "K-562 leukemia"}, "EKVX NSCLC": {"test_system": "EKVX NSCLC"}, "HCT-116 colon": {"test_system": "HCT-116 colon"}, "M14 melanoma": {"test_system": "M14 melanoma"}, "NCI-H460 lung": {"test_system": "NCI-H460 lung"}, "HOP-62 NSCLC": {"test_system": "HOP-62 NSCLC"}, "RXF 393 renal": {"test_system": "RXF 393 renal"}, "HOP-92 NSCLC": {"test_system": "HOP-92 NSCLC"}, "SF-539 CNS": {"test_system": "SF-539 CNS"}, "UO-31 renal": {"test_system": "UO-31 renal"}, "HL-60(TB) leukemia": {"test_system": "HL-60(TB) leukemia"}, "KM12 colon": {"test_system": "KM12 colon"}, "NCI-H226 lung": {"test_system": "NCI-H226 lung"}}, "note": "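Results reflect a 48-hour exposure of cells in 96-well plates to compound at five concentrations. TGI: total growth inhibition.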", "data": [{"smiles": "O=[N+]([O-])c1cc(C(F)(F)F)cc([N+](=O)[O-])c1CCl", "values": [{"measurement": "TGI", "setting": "SK-MEL-5 melanoma", "result": 1.75, "unit": "µM"}, {"measurement": "TGI", "setting": "SK-MEL-2 melanoma", "result": "> 26.7", "unit": "µM"}, {"measurement": "TGI", "setting": "UACC-257 melanoma", "result": 10.2, "unit": "µM"}, {"measurement": "TGI", "setting": "TK-10 renal", "result": 19.5, "unit": "µM"}, {"measurement": "TGI", "setting": "U251 CNS", "result": 14.2, "unit": "µM"}, {"measurement": "TGI", "setting": "NCI-H23 lung", "result": 5.7, "unit": "µM"}, {"measurement": "TGI", "setting": "786-0 renal", "result": 8.21, "unit": "µM"}, {"measurement": "TGI", "setting": "MOLT-4 leukemia", "result": 1.39, "unit": "µM"}, {"measurement": "TGI", "setting": "ACHN renal", "result": 27.9, "unit": "µM"}, {"measurement": "TGI", "setting": "DLD-1 colon", "result": 4.65, "unit": "µM"}, {"measurement": "TGI", "setting": "M19-MEL melanoma", "result": 3.64, "unit": "µM"}, {"measurement": "TGI", "setting": "SNB-19 CNS", "result": 19.9, "unit": "µM"}, {"measurement": "TGI", "setting": "NCI-H522 lung", "result": 0.812, "unit": "µM"}, {"measurement": "TGI", "setting": "OVCAR-8 ovarian", "result": 4.91, "unit": "µM"}, {"measurement": "TGI", "setting": "SK-OV-3 ovarian", "result": 14.6, "unit": "µM"}, {"measurement": "TGI", "setting": "A549 NSCLC", "result": 24.7, "unit": "µM"}, {"measurement": "TGI", "setting": "MALME-3M melanoma", "result": 13.1, "unit": "µM"}, {"measurement": "TGI", "setting": "SW-620 colon", "result": 1.63, "unit": "µM"}, {"measurement": "TGI", "setting": "OVCAR-5 ovarian", "result": 10.1, "unit": "µM"}, {"measurement": "TGI", "setting": "RXF-631 renal", "result": 10.4, "unit": "µM"}, {"measurement": "TGI", "setting": "CAKI-1 renal", "result": 7.37, "unit": "µM"}, {"measurement": "TGI", "setting": "UACC-62 melanoma", "result": 1.21, "unit": "µM"}, {"measurement": "TGI", "setting": "IGROV1 ovarian", "result": 6.09, "unit": "µM"}, {"measurement": "TGI", "setting": "SN12C renal", "result": 3.08, "unit": "µM"}, {"measurement": "TGI", "setting": "COLO 205 colon", "result": 4.14, "unit": "µM"}, {"measurement": "TGI", "setting": "OVCAR-4 ovarian", "result": 3.69, "unit": "µM"}, {"measurement": "TGI", "setting": "SF-268 CNS", "result": 27.2, "unit": "µM"}, {"measurement": "TGI", "setting": "SR leukemia", "result": 2.72, "unit": "µM"}, {"measurement": "TGI", "setting": "HOP-18 NSCLC", "result": 3.6, "unit": "µM"}, {"measurement": "TGI", "setting": "OVCAR-3 ovarian", "result": 10.5, "unit": "µM"}, {"measurement": "TGI", "setting": "SNB-78 CNS", "result": 10.6, "unit": "µM"}, {"measurement": "TGI", "setting": "SF-295 CNS", "result": 10.8, "unit": "µM"}, {"measurement": "TGI", "setting": "DMS 114 small cell lung", "result": 1.95, "unit": "µM"}, {"measurement": "TGI", "setting": "SNB-75 CNS", "result": 8.77, "unit": "µM"}, {"measurement": "TGI", "setting": "RPMI-8226 leukemia", "result": 3.49, "unit": "µM"}, {"measurement": "TGI", "setting": "LOX IMVI melanoma", "result": 0.274, "unit": "µM"}, {"measurement": "TGI", "setting": "HT29 colon", "result": 4.03, "unit": "µM"}, {"measurement": "TGI", "setting": "KM20L2 colon", "result": 8.72, "unit": "µM"}, {"measurement": "TGI", "setting": "DMS 273 small cell lung", "result": 2.62, "unit": "µM"}, {"measurement": "TGI", "setting": "LXFL 529 NSCLC", "result": 0.639, "unit": "µM"}, {"measurement": "TGI", "setting": "A498 renal", "result": 38, "unit": "µM"}, {"measurement": "TGI", "setting": "SK-MEL-28 melanoma", "result": 17.9, "unit": "µM"}, {"measurement": "TGI", "setting": "CCRF-CEM leukemia", "result": 0.722, "unit": "µM"}, {"measurement": "TGI", "setting": "K-562 leukemia", "result": 1.11, "unit": "µM"}, {"measurement": "TGI", "setting": "EKVX NSCLC", "result": 13.4, "unit": "µM"}, {"measurement": "TGI", "setting": "HCT-116 colon", "result": 2.46, "unit": "µM"}, {"measurement": "TGI", "setting": "M14 melanoma", "result": 1.59, "unit": "µM"}, {"measurement": "TGI", "setting": "NCI-H460 lung", "result": 21.4, "unit": "µM"}, {"measurement": "TGI", "setting": "HOP-62 NSCLC", "result": 30.6, "unit": "µM"}, {"measurement": "TGI", "setting": "RXF 393 renal", "result": 5.09, "unit": "µM"}, {"measurement": "TGI", "setting": "HOP-92 NSCLC", "result": 19.1, "unit": "µM"}, {"measurement": "TGI", "setting": "SF-539 CNS", "result": 9.23, "unit": "µM"}, {"measurement": "TGI", "setting": "UO-31 renal", "result": 20.6, "unit": "µM"}, {"measurement": "TGI", "setting": "HL-60(TB) leukemia", "result": 3.21, "unit": "µM"}, {"measurement": "TGI", "setting": "KM12 colon", "result": 4.92, "unit": "µM"}, {"measurement": "TGI", "setting": "NCI-H226 lung", "result": 3.11, "unit": "µM"}]}]}
